# Measurements from PMC5790795, “N-Acetylmuramic Acid (MurNAc) Auxotrophy of the Oral Pathogen Tannerella forsythia: Characterization of a MurNAc Kinase and Analysis of Its Role in Cell Wall Metabolism” (Frontiers in Microbiology, 2018).
# Target: T1, Tf_MurK (rTf_MurK; Tanf_08380) (Tannerella forsythia, UniProt G8UQH1)
# T1 construct: gene BFO_0034
# T1 sequence (G8UQH1 19-302): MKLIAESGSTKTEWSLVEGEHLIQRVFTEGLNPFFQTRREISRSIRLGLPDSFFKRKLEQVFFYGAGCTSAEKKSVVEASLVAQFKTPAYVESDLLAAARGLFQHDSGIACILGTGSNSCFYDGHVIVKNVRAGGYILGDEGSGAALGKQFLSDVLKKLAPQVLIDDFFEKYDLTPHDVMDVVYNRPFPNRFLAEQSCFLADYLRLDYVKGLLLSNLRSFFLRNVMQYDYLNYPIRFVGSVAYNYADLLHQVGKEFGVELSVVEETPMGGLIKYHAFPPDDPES
# Assay: coupled pyruvate kinase / lactate dehydrogenase assay, NADH at […] nm
# Format: biochemical
# Details: ATP, 10 mM MgCl2, 50 mM phosphate pH 7.0, 20 °C; substrate inhibition constant
compound,measurement,value
CC(=O)N[C@H]1C(O)O[C@H](CO)[C@@H](O)[C@@H]1O[C@H](C)C(=O)O (stereo partly shown) [MurNAc],Ki(S),4.2 mM
